Test results taken from patent US8591878B2, “Therapeutic compounds” (Merck Sharp & Dohme Corp., priority 2008, dated 2013).

Tested on: subgenomic HCV replicon in Huh-7 cells
Test: Cell-Based HCV Replication Assay (replicon, NS3 Cell-ELISA)
Set-up: species or system hepatitis C virus (HCV)
Conditions: Hepatitis C virus, Huh-7, 96 h, read-out: Cell based HCV Replication Assay-IC50
From the text: Another suitable assay is the cellular Replicon or rheplisa assay described as follows:
Cell-Based HCV Replication Assay
Cell clones that stably maintain subgenomic HCV replicon were obtained by transfecting Huh-7 cells with an RNA replicon identical to I377neo/NS3-3′/wt described by V. Lohmann et al., 285 SCIENCE 110 (Jul. 2, 1999) (EMBL-GENBANK No. AJ242652), followed by selection with neomycin sulfate (G418). Viral replication was monitored by measuring the expression of the NS3 protein by an ELISA assay performed directly on cells grown in 96-well microtiter plates (Cell-ELISA) using the anti-NS3 monoclonal antibody 10E5/24 (as described in International Patent Application Publication WO 02/59321). Cells were seeded into 96 well plates at a density of 10^4 cells per well in a final volume of 0.1 ml of DMEM/10% FCS. Two hours after plating, 50 μl of DMEM/10% FCS containing a 3× concentration of inhibitor were added, cells were incubated for 96 hours and then fixed for 10 minutes with ice-cold isopropanol. Each condition was tested in duplicate and average absorbance values were used for calculations. The cells were washed twice with PBS, blocked with 5% non-fat dry milk in PBS+0.1% TRITON X-100+0.02% SDS (PBSTS) and then incubated o/n at 4° C. with the 10E5/24 mab diluted in Milk/PBSTS. After washing 5 times with PBSTS, the cells were incubated for 3 hours at room temperature with Fe-specific anti-mouse IgG conjugated to alkaline phosphatase (Sigma), diluted in Milk/PBSTS. After washing again as above, the reaction was developed with p-nitrophenyl phosphate disodium substrate (Sigma) and the absorbance at 405/620 nm read at intervals. For calculations, we used data sets where samples incubated without inhibitors had absorbance values comprised between 1 and 1.5. The inhibitor concentration that reduced by 50% the expression of NS3 (IC50) was calculated by fitting the data to the Hill equation, Fraction inhibition=1−(Ai−b)/(A0−b)=[I]^n/([I]+IC50) where: • Ai=absorbance value of HBI10 cells supplemented with the indicated inhibitor concentration. • A0=absorbance value of HBI10 cells incubated without inhibitor. • b=absorbance value of Huh-7 cells plated at the same density in the same microtiter plates and incubated without inhibitor. • n=Hill coefficient.

Structure (SMILES) | IC50 [nM]
C=C[C@@H]1C[C@]1(NC(=O)[C@@H]1C[C@@H]2CN1C(=O)[C@H](C1CCCCC1)NC(=O)N1CCC[C@@H](CCCCc3cc4c(cc(-c5ccccc5)nc4cc3OC)O2)C1)C(=O)NS(=O)(=O)C1CC1 [Example 7, (3R,5S,8S,15R)-8-cyclohexyl-N-((1R,2S)-1-{[(cyclopropylsulfonyl)amino]carbonyl}-2-vinylcyclopropyl)-21-methoxy-7,10-dioxo-25-phenyl-2-oxa-6,9,11,24-tetraazapentacyclo [18.6.2.1^3,6.1^11,15.0^23,27] triaconta-1(27),20,22,23,25,27-hexaene-5-carboxamide] | 8
C=C[C@@H]1C[C@]1(NC(=O)[C@@H]1C[C@@H]2CN1C(=O)[C@H](C1CCCCC1)NC(=O)N1CCC[C@H](C1)OCCCc1cc3c(cc(OCC)nc3cc1OC)O2)C(=O)NS(=O)(=O)C1CC1 [Example 12, (3R,5S,8S,15R)-8-cyclohexyl-N-((1R,2S)-1-{[(cyclopropylsulfonyl)amino]carbonyl}-2-vinylcyclopropyl)-25-ethoxy-21-methoxy-7,10-dioxo-2,16-dioxa-6,9,11,24-tetraazapentacyclo [18.6.2.1^3,6.1^11,15.0^23,27] triaconta-1(27),20,22,23,25,27-hexaene-5-carboxamide] | 4

Same assay, conditions: Hepatitis C virus; Huh-7 cells with subgenomic HCV replicon; NS3 expression by Cell-ELISA; 96 hours incubation; read-out: Cell based HCV Replication Assay-IC50

Structure (SMILES) | IC50 [nM]
CC[C@@H]1C[C@]1(NC(=O)[C@@H]1C[C@@H]2CN1C(=O)[C@H](C1CCCC1)NC(=O)N1CC[C@@H](C1)OCCC/C=C/c1cc3ccc(OC)cc3nc1O2)C(=O)NS(=O)(=O)C1CC1 [Example 19, (1R,13E,19S,25S,28S)-25-cyclopentyl-N-((1R,2R)-1-{[(cyclopropylsulfonyl)amino]carbonyl}-2-ethylcyclopropyl)-7-methoxy-23,26-dioxo-2,18-dioxa-4,22,24,27-tetraazapentacyclo [25.2.1.1^19,22.0^3,12.0^5,10] hentriaconta-3(12),4,5,7,9,10,13-heptaene-28-carboxamide] | 4
C=C[C@@H]1C[C@]1(NC(=O)[C@@H]1C[C@@H]2CN1C(=O)[C@H](C1CCCCC1)NC(=O)N1CC[C@@H](C1)OC/C=C/c1cc3c(cc(OCC)nc3cc1OC)O2)C(=O)NS(=O)(=O)C1CC1 [Example 13, (3R,5S,8S,14S,17E)-8-cyclohexyl-N-((1R,2S)-1-{[(cyclopropylsulfonyl)amino]carbonyl}-2-vinylcyclopropyl)-24-ethoxy-20-methoxy-7,10-dioxo-2,15-dioxa-6,9,11,23-tetraazapentacyclo [17.6.2.1^3,6.1^11,14.0^22,26] nonacosa-1(25),17,19,21,23,26-hexaene-5-carboxamide] | 9
C=C[C@@H]1C[C@]1(NC(=O)C1C[C@@H]2CN1C(=O)[C@H](C1CCCC1)NC(=O)N1CC[C@@H](C1)OCCC/C=C/c1cc3ccc(OC)cc3nc1O2)C(=O)NS(=O)(=O)C1CC1 (stereo partly drawn) [Example 17, (1R,13E,19S,25S,28S)-25-cyclopentyl-N-((1R,2S)-1-{[(cyclopropylsulfonyl)amino]carbonyl}-2-vinylcyclopropyl)-7-methoxy-23,26-dioxo-2,18-dioxa-4,22,24,27-tetraazapentacyclo [25.2.1.1^19,22.0^3,12.0^5,10] hentriaconta-3(12),4,5,7,9,10,13-heptaene-28-carboxamide] | 4
C=C[C@@H]1C[C@]1(NC(=O)[C@@H]1C[C@@H]2CN1C(=O)[C@H](C1CCCCC1)NC(=O)N1CCC[C@H](C1)OCCCc1cc3c(cc(-c4ccccc4)nc3cc1OC)O2)C(=O)NS(=O)(=O)C1CC1 [Example 8, (3R,5S,8S,15R)-8-cyclohexyl-N-((1R,2S)-1-{[(cyclopropylsulfonyl)amino]carbonyl}-2-vinylcyclopropyl)-21-methoxy-7,10-dioxo-25-phenyl-2,16-dioxa-6,9,11,24-tetraazapentacyclo [18.6.2.1^3,6.1^11,15.0^23,27] triaconta-1(27),20,22,23,25,27-hexaene-5-carboxamide] | 5
C=C[C@@H]1C[C@]1(NC(=O)[C@@H]1C[C@@H]2CN1C(=O)[C@H](C1CCCC1)NC(=O)N1CC[C@H](COCCCc3nc4ccc(OC)cc4cc3O2)C1)C(=O)NS(=O)(=O)C1CC1 [Example 25, (1R,18S,24S,27S)-24-cyclopentyl-N-((1R,2R)-1-{[(cyclopropylsulfonyl)amino]carbonyl}-2-vinylcyclopropyl)-7-methoxy-22,25-dioxo-2,16-dioxa-11,21,23,26-tetraazapentacyclo [24.2.1.1^18,21.0^3,12.0^5,10] triaconta-3(12),4,5,7,9,10-hexaene-27-carboxamide] | 7
C=C[C@@H]1C[C@]1(NC(=O)[C@@H]1C[C@@H]2CN1C(=O)[C@H](C(C)(C)C)NC(=O)N1CCC[C@H]1CC/C=C/c1cccc3c1CN(C3)C(=O)O2)C(=O)NS(=O)(=O)C1CC1 [Example 4, (1R,12E,16R,23S,26S)-23-tert-butyl-N-((1R,2S)-1-{[(cyclopropylsulfonyl)amino]carbonyl}-2-vinylcyclopropyl)-3,21,24-trioxo-2-oxa-4,20,22,25-tetraazapentacyclo [23.2.1.1^4,7.0^6,11.0^16,20] nonacosa-6,8,10,12-tetraene-26-carboxamide] | 260
C=C[C@@H]1C[C@]1(NC(=O)[C@@H]1CC2CN1C(=O)[C@H](C1CCCC1)NC(=O)N1CCCC(C1)OC/C=C/Cn1cc(C)c3c4ccccc4nc(c31)O2)C(=O)NS(=O)(=O)C1CC1 (stereo in doubt) [Example 15, (3S,5S,8S,18E)-8-cyclopentyl-N-((1R,2S)-1-{[(cyclopropylsulfonyl)amino]carbonyl}-2-vinylcyclopropyl)-23-methyl-7,10-dioxo-2,16-dioxa-6,9,11,21,31-pentaazahexacyclo [19.10.1.1^3,6.1^11,15.0^24,32.0^25,30] tetratriaconta-1(31),18,22,24(32),25,27,29-heptaene-5-carboxamide] | 5
C=C[C@@H]1C[C@]1(NC(=O)[C@@H]1C[C@@H]2CN1C(=O)[C@H](C1CCCC1)NC(=O)N1CC[C@H](C1)OCCC/C=C/c1cc3ccc(OC)cc3nc1O2)C(=O)NS(=O)(=O)C1CC1 [Example 21, (1R,13E,19S,25S,28S)-25-cyclopentyl-N-((1R,2R)-1-{[(cyclopropylsulfonyl)amino]carbonyl}-2-vinylcyclopropyl)-7-methoxy-23,26-dioxo-2,18-dioxa-4,22,24,27-tetraazapentacyclo [25.2.1.1^19,22.0^3,12.0^5,10] hentriaconta-3(12),4,5,7,9,10,13-heptaene-28-carboxamide] | 20
C=C[C@@H]1C[C@]1(NC(=O)[C@@H]1C[C@@H]2CN1C(=O)[C@H](C1CCCC1)NC(=O)N1CC[C@@H](C1)OCCCc1ccc3nc(OCC)nc(c3c1)O2)C(=O)NS(=O)(=O)C1CC1 [Example 41, (3R,5S,8S,14S)-8-cyclopentyl-N-((1R,2S)-1-{[(cyclopropylsulfonyl)amino]carbonyl}-2-vinylcyclopropyl)-24-ethoxy-7,10-dioxo-2,15-dioxa-6,9,11,23,25-pentaazapentacyclo [17.6.2.1^3,6.1^11,14.0^22,26] nonacosa-1(25),19,21,23,26-pentaene-5-carboxamide] | 94

Same assay, conditions: Hepatitis C virus; Huh-7 replicon cells; NS3 expression by Cell-ELISA; 96 hours; read-out: Cell-based HCV Replication Assay: IC50

Structure (SMILES) | IC50 [nM]
C=C[C@@H]1C[C@]1(NC(=O)[C@@H]1C[C@@H]2CN1C(=O)[C@H](C1CCCCC1)NC(=O)N1CC(C1)OCCCCc1cc3c(cc(OCC)nc3cc1OC)O2)C(=O)NS(=O)(=O)C1CC1 [Example 45, (3R,5S,8S)-8-cyclohexyl-N-((1R,2S)-1-{[(cyclopropylsulfonyl)amino]carbonyl}-2-vinylcyclopropyl)-24-ethoxy-20-methoxy-7,10-dioxo-2,14-dioxa-6,9,11,23-tetraazapentacyclo[17.6.2.1^3,6.1^11,13.0^22,26]nonacosa-1(25),19,21,23,26-pentaene-5-carboxamide] | 6

Same assay, conditions: Huh-7 cells with subgenomic HCV replicon; NS3 expression by Cell-ELISA; 96 hours incubation; read-out: Cell based HCV Replication Assay-IC50

Structure (SMILES) | IC50 [nM]
CC[C@@H]1C[C@]1(NC(=O)[C@@H]1C[C@@H]2CN1C(=O)[C@H](C1CCCC1)NC(=O)N1CC[C@@H](C1)OCCCCCc1cc3ccc(OC)cc3nc1O2)C(=O)NS(=O)(=O)C1CC1 [Example 20, (1R,19S,25S,28S)-25-cyclopentyl-N-((1R,2R)-1-{[(cyclopropylsulfonyl)amino]carbonyl}-2-ethylcyclopropyl)-7-methoxy-23,26-dioxo-2,18-dioxa-4,22,24,27-tetraazapentacyclo [25.2.1.1^19,22.0^3,12.0^5,10] hentriaconta-3(12),4,5,7,9,10-hexaene-28-carboxamide] | 15
